The values that follow come from patent US20260297109A1, “COMPOUNDS AS SUMO ACTIVATING ENZYME INHIBITORS” (WIGEN BIOMEDICINE TECHNOLOGY (SHANGHAI) CO., LTD., priority 2022, published 2026).

In the first test the target is T1, SAE (Homo sapiens, UniProt Q9UBT2).
T1 construct: endogenous in cells; host or cells: HCT116
T1 sequence (Q9UBT2 1-640): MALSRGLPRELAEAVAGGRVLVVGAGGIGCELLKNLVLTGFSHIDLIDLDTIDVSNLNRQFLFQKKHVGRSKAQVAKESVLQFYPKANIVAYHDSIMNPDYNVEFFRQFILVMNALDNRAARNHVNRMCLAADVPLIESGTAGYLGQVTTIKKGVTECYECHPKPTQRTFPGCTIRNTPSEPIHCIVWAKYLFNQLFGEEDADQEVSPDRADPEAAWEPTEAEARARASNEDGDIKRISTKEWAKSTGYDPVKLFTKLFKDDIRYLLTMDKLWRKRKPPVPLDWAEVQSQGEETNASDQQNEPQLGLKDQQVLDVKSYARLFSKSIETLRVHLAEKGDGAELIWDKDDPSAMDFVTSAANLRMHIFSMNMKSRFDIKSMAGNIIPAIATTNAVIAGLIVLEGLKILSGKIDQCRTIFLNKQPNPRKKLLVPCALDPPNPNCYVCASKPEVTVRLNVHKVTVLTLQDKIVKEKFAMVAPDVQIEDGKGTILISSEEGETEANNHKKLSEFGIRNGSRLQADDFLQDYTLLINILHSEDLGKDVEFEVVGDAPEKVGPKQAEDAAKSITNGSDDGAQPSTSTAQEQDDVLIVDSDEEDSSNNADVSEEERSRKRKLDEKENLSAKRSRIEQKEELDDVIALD
T1 sequence (Q9UBE0 1-346): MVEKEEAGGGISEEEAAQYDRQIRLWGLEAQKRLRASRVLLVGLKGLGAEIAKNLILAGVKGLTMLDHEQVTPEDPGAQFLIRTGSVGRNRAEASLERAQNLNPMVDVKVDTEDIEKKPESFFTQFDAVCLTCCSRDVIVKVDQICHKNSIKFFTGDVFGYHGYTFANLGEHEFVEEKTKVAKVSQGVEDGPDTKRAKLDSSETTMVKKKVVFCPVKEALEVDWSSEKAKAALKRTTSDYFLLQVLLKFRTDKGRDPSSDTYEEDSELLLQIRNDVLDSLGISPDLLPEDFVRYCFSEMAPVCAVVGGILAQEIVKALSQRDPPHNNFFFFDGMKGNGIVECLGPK
The experiment in a line: SUMO IF: in vitro inhibitory activity assay against SAE in HCT116 cells (SUMO-2/3 immunofluorescence). Type of test: cell-based. As to conditions: class symbols, 6 h at 37° C. In short, it runs like this: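 HCT116 cells were treated with compound for 6 h at 37 °C, then PFA-fixed, Triton-permeabilised and BSA-blocked. They were stained overnight at 4 °C with anti-SUMO-2/3 (18H8) rabbit mAb (1:400), then with FITC anti-rabbit IgG (1:300). Fluorescence versus DMSO gave inhibition rate and IC50.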
For `CC(C)N1Cc2sc(C(=O)c3cncnc3N[C@H]3C[C@H](O)[C@@H](COS(N)(=O)=O)[C@@H]3F)cc2C2(C1)OCCc1ccc(Cl)cc12` (stereo partly drawn) [Compound 735], the IC50 (usually the point on the concentration scale where inhibition reaches its midpoint) is 50 to 200 nM.
Still for that read-out and setting: then `NS(=O)(=O)OC[C@H]1[C@H](F)[C@@H](Nc2ncncc2C(=O)c2nc3c(s2)COC[C@@]32NCCc3ccc(Cl)cc32)C[C@@H]1O` [Compound 589], with over 200 nM; and `NS(=O)(=O)OC[C@H]1[C@H](F)[C@@H](Nc2ncncc2C(=O)c2cc3c(s2)CSC[C@@]32NCCc3ncc(Cl)cc32)C[C@@H]1O` [Compound 613], with over 200 nM; and `NS(=O)(=O)OC[C@H]1[C@H](F)[C@@H](Nc2ncncc2C(=O)c2cc3c(s2)COCC32NCCc3ccc(Cl)c(F)c32)C[C@@H]1O` (stereo partly drawn) [Compound 567], with 50 to 200 nM.
The compound `NS(=O)(=O)OC[C@H]1[C@H](F)[C@@H](Nc2ncncc2C(=O)c2cc3c(s2)COC[C@@]32NCCc3ccccc32)C[C@@H]1O` [Compound 98] registered an IC50 of over 200 nM.
`NS(=O)(=O)OC[C@H]1[C@H](F)[C@@H](Nc2ncncc2C(=O)c2cc3c(s2)CCC[C@]32NCCc3cc(F)c(Cl)c(F)c32)C[C@@H]1O` [Compound 676]: the IC50 was at most 50 nM.
Still for that read-out and setting: as for `N#Cc1ccc2c(c1)C1(CCCc3sc(C(=O)c4cncnc4N[C@H]4C[C@H](O)[C@@H](COS(N)(=O)=O)[C@@H]4F)cc31)NCC2` (stereo partly drawn) [Compound 94], the figure is 50 to 200 nM; as for `NS(=O)(=O)OC[C@H]1[C@H](F)[C@@H](Nc2ncncc2C(=O)c2cc3c(s2)C=CC32NCCc3ccc(Cl)cc32)C[C@@H]1O` (stereo partly drawn) [Compound 162], at most 50 nM; as for `CC1(C)CN[C@]2(C=Cc3sc(C(=O)c4cncnc4N[C@H]4C[C@H](O)[C@@H](COS(N)(=O)=O)[C@@H]4F)cc32)c2cc(Cl)ccc21` [Compound 1061], 50 to 200 nM.
On the same count and under the same terms, then `NS(=O)(=O)OC[C@H]1[C@H](F)[C@@H](Nc2ncncc2C(=O)c2cc3c(s2)C(F)(F)C[C@@]32NCCc3ccc(Cl)cc32)C[C@@H]1O` [Compound 328], with over 200 nM; and `NS(=O)(=O)OC[C@H]1[C@H](F)[C@@H](Nc2ncncc2C(=O)c2cc3c(s2)C(F)(F)C[C@]32NCCc3ccc(Cl)cc32)C[C@@H]1O` [Compound 329], with 50 to 200 nM; and `Cc1sc(C(=O)c2cncnc2N[C@H]2C[C@H](O)[C@@H](COS(N)(=O)=O)[C@@H]2F)cc1C1NCCc2cc(F)c(Cl)c(F)c21` (stereo partly drawn) [Compound 251], with 50 to 200 nM.
Still for that read-out and setting: as for `Cc1cc2c(cc1Cl)[C@@]1(CCCc3sc(C(=O)c4cncnc4N[C@H]4C[C@H](O)[C@@H](COS(N)(=O)=O)[C@@H]4F)cc31)NCC2` [Compound 673], the figure is at most 50 nM; as for `COc1ccc2c(c1)[C@@]1(CCCc3sc(C(=O)c4cncnc4N[C@H]4C[C@H](O)[C@@H](COS(N)(=O)=O)[C@@H]4F)cc31)NCC2` [Compound 644], over 200 nM.
For `NS(=O)(=O)OC[C@H]1[C@H](F)[C@@H](Nc2ncncc2C(=O)c2cc3c(s2)C=C[C@@]32OCCc3ccc(F)cc32)C[C@@H]1O` [Compound 757], the half-inhibitory concentration (IC50) was over 200 nM.
Regarding `NS(=O)(=O)OC[C@H]1[C@H](F)[C@@H](Nc2ncncc2C(=O)c2cc3c(s2)C=C[C@]32OCCc3ccc(Cl)cc32)C[C@@H]1O` [Compound 761], the IC50 was at most 50 nM.
In turn, `N#Cc1ccc2c(c1)C1(CCc3sc(C(=O)c4cncnc4N[C@H]4C[C@H](O)[C@@H](COS(N)(=O)=O)[C@@H]4F)cc31)OCC2` (stereo partly drawn) [Compound 750] displayed an IC50 of 50 to 200 nM.
As to `NS(=O)(=O)OC[C@H]1[C@H](F)[C@@H](Nc2ncncc2C(=O)c2cc3c(s2)CCC32NCCc3ccccc32)C[C@@H]1O` (stereo partly drawn) [Compound 127], the IC50 was over 200 nM.
In the case of `COc1cc2c(cc1Cl)C1(CCCc3sc(C(=O)c4cncnc4N[C@H]4C[C@H](O)[C@@H](COS(N)(=O)=O)[C@@H]4F)cc31)NCC2` (stereo partly drawn) [Compound 115], the half-maximal inhibitory concentration (IC50) lay in the range of 50 to 200 nM.
The compound `N#Cc1cc2c(cc1Cl)C1(CCCc3sc(C(=O)c4cncnc4N[C@H]4C[C@H](O)[C@@H](COS(N)(=O)=O)[C@@H]4F)cc31)NCC2` (stereo partly drawn) [Compound 114] registered an IC50 of 50 to 200 nM.
As to `C#Cc1ccc2c(c1)[C@@]1(CCCc3sc(C(=O)c4cncnc4N[C@H]4C[C@H](O)[C@@H](COS(N)(=O)=O)[C@@H]4F)cc31)NCC2` [Compound 668], the concentration for half-maximal inhibition (IC50) was in the range of 50 to 200 nM.
Still for that read-out and setting: as for `CC(C)N1Cc2sc(C(=O)c3cncnc3N[C@H]3C[C@H](O)[C@@H](COS(N)(=O)=O)[C@@H]3F)cc2[C@@]2(C1)OCCc1ccc(F)cc12` [Compound 733], the figure is over 200 nM; as for `Cc1sc(C(=O)c2cncnc2N[C@H]2C[C@H](O)[C@@H](CCS(N)(=O)=O)[C@@H]2F)cc1[C@H]1NCCc2ccc(Cl)cc21` [Compound 992], over 200 nM; as for `CN1Cc2sc(C(=O)c3cncnc3N[C@H]3C[C@H](O)[C@@H](COS(N)(=O)=O)[C@@H]3F)cc2[C@@]2(C1)OCCc1ccc(Cl)cc12` [Compound 724], over 200 nM.
Same read-out and setting: as for `Cc1sc(C(=O)c2cncnc2N[C@H]2C[C@H](O)[C@@H](COS(N)(=O)=O)[C@@H]2F)cc1C1NC=Cc2ccc(Cl)cc21` (stereo partly drawn) [Compound 267], the figure is 50 to 200 nM.
Same read-out and setting: as for `CC1Cc2ccc(Cl)cc2[C@]2(CCCc3sc(C(=O)c4cncnc4N[C@H]4C[C@H](O)[C@@H](COS(N)(=O)=O)[C@@H]4F)cc32)N1` (stereo partly drawn) [Compound 1024], the figure is over 200 nM; as for `NS(=O)(=O)OC[C@H]1[C@H](F)[C@@H](Nc2ncncc2C(=O)c2cc3c(s2)OCC[C@]32NCCc3ccc(Cl)cc32)C[C@@H]1O` [Compound 682], 50 to 200 nM.
As to `NS(=O)(=O)OC[C@H]1[C@H](F)[C@@H](Nc2ncncc2C(=O)c2cc3c(s2)OCC32NCCc3ccccc32)C[C@@H]1O` (stereo partly drawn) [Compound 139], the IC50 is over 200 nM.
Consider `NS(=O)(=O)CC[C@H]1[C@H](F)[C@@H](Nc2ncncc2C(=O)c2cc3c(s2)C=C[C@]32NCCc3ccc(Cl)cc32)C[C@@H]1O` [Compound 640], for which the IC50 was 50 to 200 nM.
Still for that read-out and setting: then `NS(=O)(=O)OC[C@H]1[C@H](F)[C@@H](Nc2ncncc2C(=O)c2cc3c(s2)CCC[C@@]32OCCc3ccc(F)cc32)C[C@@H]1O` [Compound 712], with over 200 nM; and `NS(=O)(=O)OC[C@H]1[C@H](F)[C@@H](Nc2ncncc2C(=O)c2cc3c(s2)COC[C@@]32NCCc3cc(F)c(Cl)cc32)C[C@@H]1O` [Compound 571], with over 200 nM; and `N#Cc1cc2c(cc1Cl)[C@@]1(CCc3sc(C(=O)c4cncnc4N[C@H]4C[C@H](O)[C@@H](COS(N)(=O)=O)[C@@H]4F)cc31)NCC2` [Compound 695], with at most 50 nM.
As for `NS(=O)(=O)OC[C@H]1[C@H](F)[C@@H](Nc2ncncc2C(=O)c2cc3c(s2)COC[C@]32NCCc3cc(F)c(Cl)cc32)C[C@@H]1O` [Compound 572], the IC50 was in the range of 50 to 200 nM.
Compound `CC1CNC2(CCCc3sc(C(=O)c4cncnc4N[C@H]4C[C@H](O)[C@@H](COS(N)(=O)=O)[C@@H]4F)cc32)c2cc(Cl)ccc21` (stereo partly drawn) [Compound 1020] registered a 50% inhibitory concentration (IC50) of 50 to 200 nM.
In turn, `NS(=O)(=O)OC[C@H]1[C@H](F)[C@@H](Nc2ncncc2C(=O)c2cc3c(s2)COC[C@]32NCCc3ccccc32)C[C@@H]1O` [Compound 99] yielded a half-maximal inhibitory concentration (IC50) of 50 to 200 nM.

Staying with this test, now noted: numeric values, 6 h at 37° C.
`NS(=O)(=O)OC[C@H]1[C@H](F)[C@@H](Nc2ncncc2C(=O)c2cc3c(s2)CN(C2CC2)C[C@@]32NCCc3ccc(Cl)cc32)C[C@@H]1O` [Compound 580] returned a half-inhibitory concentration (IC50) of over 1000 nM.
`NS(=O)(=O)OC[C@H]1[C@H](F)[C@@H](Nc2ncncc2C(=O)c2cc3c(s2)COC[C@@]32NCCc3ccc(Cl)cc32)C[C@@H]1O` [Compound 104] registered an IC50 of over 1000 nM.
In turn, `Cc1sc(C(=O)c2cncnc2N[C@H]2C[C@H](O)[C@@H](COS(N)(=O)=O)[C@@H]2F)cc1[C@@H]1NCCc2ccc(F)cc21` [Compound 236] displayed an IC50 of 73.1 nM.
In the case of `NS(=O)(=O)OC[C@H]1[C@H](F)[C@@H](Nc2ncncc2C(=O)c2cc3c(s2)CC[C@]32NCCc3ccccc32)C[C@@H]1O` [Compound 129], the 50% inhibitory concentration (IC50) was 121 nM.
On to `NS(=O)(=O)OC[C@H]1[C@H](F)[C@@H](Nc2ncncc2C(=O)c2cc3c(s2)CCC[C@@]32NCCc3ccc(Cl)cc32)C[C@@H]1O` [Compound 89], for which the IC50 was over 1000 nM.
The same measure, in the same setting: then `NS(=O)(=O)OC[C@H]1[C@H](F)[C@@H](Nc2ncncc2C(=O)c2cc3c(s2)CC[C@@]32NCCc3ccc(F)cc32)C[C@@H]1O` [Compound 134], with over 1000 nM; and `C=CCN1Cc2sc(C(=O)c3cncnc3N[C@H]3C[C@H](O)[C@@H](COS(N)(=O)=O)[C@@H]3F)cc2[C@@]2(C1)NCCc1ccc(Cl)cc12` [Compound 655], with over 1000 nM.
